Our source for the IC50 values is ChEMBL document CHEMBL1155562, “Workup-dependent formation of 5-lipoxygenase inhibitory boswellic acid analogues” (J Nat Prod, 2000).

The target in this assay is T1, Polyunsaturated fatty acid 5-lipoxygenase (Homo sapiens, UniProt P09917).
T1 sequence (P09917 whole entry): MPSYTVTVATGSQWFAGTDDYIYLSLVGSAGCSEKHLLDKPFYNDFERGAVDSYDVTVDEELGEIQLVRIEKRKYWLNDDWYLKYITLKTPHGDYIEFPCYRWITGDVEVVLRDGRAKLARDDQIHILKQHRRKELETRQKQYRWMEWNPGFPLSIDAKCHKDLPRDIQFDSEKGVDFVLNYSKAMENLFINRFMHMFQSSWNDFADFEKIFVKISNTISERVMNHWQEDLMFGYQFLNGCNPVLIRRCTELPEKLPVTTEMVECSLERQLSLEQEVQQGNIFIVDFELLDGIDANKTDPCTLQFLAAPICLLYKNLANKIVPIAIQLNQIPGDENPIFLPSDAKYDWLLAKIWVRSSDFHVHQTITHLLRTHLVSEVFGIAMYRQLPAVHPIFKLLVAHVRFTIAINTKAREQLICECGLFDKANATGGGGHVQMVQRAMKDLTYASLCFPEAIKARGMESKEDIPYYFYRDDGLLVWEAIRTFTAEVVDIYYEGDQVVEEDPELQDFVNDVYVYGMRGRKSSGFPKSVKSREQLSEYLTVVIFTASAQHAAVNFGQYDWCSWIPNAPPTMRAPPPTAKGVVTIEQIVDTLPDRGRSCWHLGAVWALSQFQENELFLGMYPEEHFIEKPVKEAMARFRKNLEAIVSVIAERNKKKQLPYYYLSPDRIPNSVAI
The assay is described as follows: Inhibition of lipoxygenase 5 product formation from endogenous substrate in Calcium and ionophore-stimulated polymorphonuclear leukocyte.

The term IC50 denotes the concentration that inhibits the measured activity by half. For the compound `CC(=O)O[C@@H]1CC[C@]2(C)C3=CC=C4[C@@H]5[C@@H](C)[C@H](C)CC[C@]5(C)CC[C@@]4(C)[C@]3(C)CC[C@H]2[C@@]1(C)C(=O)O`, the IC50 worked out at 750 nM. Take `C[C@H]1[C@H](C)CC[C@]2(C)CC[C@]3(C)C(=CC(=O)[C@@H]4[C@@]5(C)CC[C@@H](O)[C@](C)(C(=O)O)[C@@H]5CC[C@]43C)[C@H]12` [11-KETO BOSWELLIC ACID]: the IC50 is 3000 nM.

`CC(=O)O[C@@H]1CC[C@@]2(C)[C@@H](CC[C@]3(C)[C@@H]2C(=O)C=C2[C@@H]4[C@@H](C)[C@H](C)CC[C@]4(C)CC[C@]23C)[C@@]1(C)C(=O)O` [AKBA]: the IC50 was found to be 2700 nM.
